In US11396504B2, “Alkoxybenzo-five-membered (six-membered) heterocyclic amine compound and pharmaceutical use thereof” (FUDAN UNIVERSITY, priority 2018, dated 2022):

How the values were obtained:
[1] = biological target: T1, Sphingomyelin Synthase 2 (SMS2 pure enzyme) (Homo sapiens, UniProt Q8NHU3); experiment: In vitro SMS2 pure enzyme inhibition, HPLC fluorogenic quantitative detecting method (C6-NBD-Ceramide to C6-NBD-SM); format: biochemical; details: for Selectivity ratio: SMS1 IC50 relative to SMS2 IC50; for IC50: SMS2 pure enzyme, five concentrations, three parallel groups, experimental value
T1 construct: Yu, Cao research group of National Protein Science Center (Shanghai)
T1 sequence (Q8NHU3 1-365): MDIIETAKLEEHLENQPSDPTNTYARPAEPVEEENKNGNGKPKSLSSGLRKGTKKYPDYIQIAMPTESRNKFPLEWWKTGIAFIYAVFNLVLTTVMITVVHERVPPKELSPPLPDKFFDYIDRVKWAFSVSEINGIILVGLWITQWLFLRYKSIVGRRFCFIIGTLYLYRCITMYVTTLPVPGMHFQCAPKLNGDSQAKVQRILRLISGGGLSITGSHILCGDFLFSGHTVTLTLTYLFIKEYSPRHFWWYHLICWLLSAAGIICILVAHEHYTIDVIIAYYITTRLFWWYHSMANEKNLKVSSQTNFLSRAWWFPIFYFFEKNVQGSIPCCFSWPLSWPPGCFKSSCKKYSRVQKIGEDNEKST
Protocol: Add […] SMS2 pure enzyme DDM solution (total protein content 1.5 μg/μL), 1 μL test compound in DMSO solution or blank DMSO solution, 79.7 μL DDM buffer to 1.5 mL Eppendorf tube, vortex 30 seconds, let stand at room temperature for 5 min. Then add 20 μL DDM buffer containing 1 μL DMPC in ethanol (40 mmol/L) and 1 μL C6-NBD-Ceramide in DMSO (1.16 mmol/L). After vortexing for 30 seconds, Incubate for 0.5 h under water bath at 37° C. Then remove, add 200 μL of absolute ethanol, and vortex for 30 seconds. Take out 200 μL of the mixture and store it at 4° C. for high performance liquid chromatography analysis.
(§1) Using the same HPLC fluorogenic quantitative detecting method as reference (Xiaodong Deng; Hong Sun; et al. Analytical Letters, 2012, 45:12, 1581-1589) to analyses samples obtained above. Analysize and record peak areas of C6-NBD-SM (Asm) and C6-NBD-Ceramide (Acer) of each sample from blank group, positive control group (compound D2) and under tested compound group. Calculate inhibition rate from the formula below: […]
The DMSO stock solution of under tested compound (6 mM) was diluted stepwise into five concentration gradient. 1 μL solution of each concentration was added into the trial system to prepare samples with the method mentioned in the first step of application case 15. The Asm values of the five concentration solution of tested compound were measured (compound D2 is a positive control), and the inhibition rate under the five concentration were calculated and fitted to obtain median inhibitory concentration (IC50). Each compound was measured three parallel groups. SMS2 median inhibitory concentration and SMS1 single inhibitory concentration (50 μM) of Scheme I-1˜I-38, and SMS1 median inhibitory concentration of some compounds are listed below in Table 1.

[2] = biological target: T2, Sphingomyelin Synthase 1 (SMS1 pure enzyme) (Homo sapiens, UniProt Q86VZ5); experiment: In vitro SMS1 pure enzyme inhibition, HPLC fluorogenic quantitative detecting method; format: biochemical
T2 construct: Yu, Cao research group of National Protein Science Center (Shanghai)
T2 sequence (Q86VZ5 1-413): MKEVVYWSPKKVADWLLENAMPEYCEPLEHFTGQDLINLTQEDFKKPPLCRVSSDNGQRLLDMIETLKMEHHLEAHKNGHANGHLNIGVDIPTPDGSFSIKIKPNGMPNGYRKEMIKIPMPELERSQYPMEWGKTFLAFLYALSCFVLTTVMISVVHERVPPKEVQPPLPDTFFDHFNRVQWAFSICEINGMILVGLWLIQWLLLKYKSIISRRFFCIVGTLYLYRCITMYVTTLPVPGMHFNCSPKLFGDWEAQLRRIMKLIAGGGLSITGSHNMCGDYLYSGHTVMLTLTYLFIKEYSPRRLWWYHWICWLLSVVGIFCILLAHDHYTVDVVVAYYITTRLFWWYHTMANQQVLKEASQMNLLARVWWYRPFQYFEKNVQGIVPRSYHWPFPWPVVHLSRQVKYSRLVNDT
Description: Referring to the above SMS2 inhibitory activity detection method, and using SMS1 pure enzyme instead of SMS2 pure enzyme for corresponding operation.
as §1
Part 4. Determination of SMS1 Median Inhibitory Concentration (IC50) and SMS1 Single Concentration (50 μM) Inhibitory Concentration of Alkoxybenzeno Five- or Six-Member Heterocyclic Amines (Scheme I-1˜I-38)
The experiment can be carried out with the corresponding concentration according to the operation similar to the determination of the median inhibitory concentration (IC50) of SMS2.

Row | Selectivity ratio [1] | IC50 [1] | IC50 [2] | inhibition at 50 µM ([2]; single concentration 50 μM) | SMS1 Inhibition (50 μM) ([2]; single concentration 50 μM) | SMILES
1 | 342 | 117 nM | 40000 nM | 65% |  | CCc1ccccc1COc1cccc2onc(Nc3cccnc3)c12 [Scheme I-1, 4-((2-ethylbenzyl)oxy)-N-(pyridin-3-yl)benzo[d]isoxazol-3-amine]
2 | 539 | 102 nM | 55000 nM | 44% |  | Fc1ccc(Cl)c(COc2cccc3onc(Nc4cccnc4)c23)c1 [Scheme I-2, 4-((2-Chloro-5-fluorobenzyl)oxy)-N-(pyridin-3-yl)benzo[d]-isoxazol-3-amine]
3 |  | 2000 nM |  | 49% |  | FC(F)(F)Oc1ccc(Cl)cc1COc1cccc2onc(Nc3cccnc3)c12 [Scheme I-3, 4-((5-chloro-2-(trifluoromethoxy)benzyl)oxy)-N-(pyridin-3-yl)benzo[d]isoxazol-3-amine]
4 |  | 660 nM |  | 6% |  | Fc1ccccc1COc1cccc2onc(Nc3cccnc3)c12 [Scheme I-4, 4-((2-fluorobenzyl)oxy)-N-(pyridin-3-yl)benzo[d]isoxazol-3-amine]
5 |  | 156 nM |  | 6% |  | Fc1cccc(COc2cccc3onc(Nc4cccnc4)c23)c1 [Scheme I-5, 4-((3-fluorobenzyl)oxy)-N-(pyridin-3-yl)benzo[d]isoxazol-3-amine]
6 |  | 1520 nM |  | 7% |  | Fc1ccc(COc2cccc3onc(Nc4cccnc4)c23)cc1 [Scheme I-6, 4-((4-fluorobenzyl)oxy)-N-(pyridin-3-yl)benzo[d]isoxazol-3-amine]
7 | 292 | 270 nM | 79000 nM |  | 41% | Clc1ccccc1COc1cccc2onc(Nc3cccnc3)c12 [Scheme I-7, 4-((2-chlorobenzyl)oxy)-N-(pyridin-3-yl)benzo[d]isoxazol-3-amine]
8 | 840 | 94 nM | 79000 nM | 44% |  | Clc1cccc(COc2cccc3onc(Nc4cccnc4)c23)c1 [Scheme I-8, 4-((3-chlorobenzyl)oxy)-N-(pyridin-3-yl)benzo[d]isoxazol-3-amine]
9 |  | > 10000 nM |  | 5% |  | Clc1ccc(COc2cccc3onc(Nc4cccnc4)c23)cc1 [Scheme I-9, 4-((4-chlorobenzyl)oxy)-N-(pyridin-3-yl)benzo[d]isoxazol-3-amine]
10 | 140 | 498 nM | 70000 nM | 41% |  | Cc1ccccc1COc1cccc2onc(Nc3cccnc3)c12 [Scheme I-10, 4-((2-methylbenzyl)oxy)-N-(pyridin-3-yl)benzo[d]isoxazol-3-amine]
11 |  | 190 nM |  | 20% |  | Cc1cccc(COc2cccc3onc(Nc4cccnc4)c23)c1 [Scheme I-11, 4-((3-methylbenzyl)oxy)-N-(pyridin-3-yl)benzo[d]isoxazol-3-amine]
12 |  |  |  | 5% |  | Cc1ccc(COc2cccc3onc(Nc4cccnc4)c23)cc1 [Scheme I-12, 4-((4-methylbenzyl)oxy)-N-(pyridin-3-yl)benzo[d]isoxazol-3-amine]
13 |  | 255 nM |  | 21% |  | FC(F)(F)c1ccccc1COc1cccc2onc(Nc3cccnc3)c12 [Scheme I-13, 4-((2-Trifluoromethylbenzyl)oxy)-N-(pyridin-3-yl)benzo[d]isoxazole-3-amine]
14 |  | 486 nM |  | 25% |  | FC(F)(F)c1cccc(COc2cccc3onc(Nc4cccnc4)c23)c1 [Scheme I-14, 4-((3-Trifluoromethylbenzyl)oxy)-N-(pyridin-3-yl)benzo[d]isoxazole-3-amine]
15 |  | > 10000 nM |  | 9% |  | FC(F)(F)c1ccc(COc2cccc3onc(Nc4cccnc4)c23)cc1 [Scheme I-15, 4-((4-Trifluoromethylbenzyl)oxy)-N-(pyridin-3-yl)benzo[d]isoxazole-3-amine]
16 | 201 | 239 nM | 48000 nM | 49% |  | COc1ccccc1COc1cccc2onc(Nc3cccnc3)c12 [Scheme I-16, 4-((2-Methoxybenzyl)oxy)-N-(pyridin-3-yl)benzo[d]isoxazol-3-amine]
17 |  | 523 nM |  | 17% |  | COc1cccc(COc2cccc3onc(Nc4cccnc4)c23)c1 [Scheme I-17, 4-((3-Methoxybenzyl)oxy)-N-(pyridin-3-yl)benzo[d]isoxazol-3-amine]
18 |  |  |  | -5% |  | COc1ccc(COc2cccc3onc(Nc4cccnc4)c23)cc1 [Scheme I-18, 4-((4-Methoxybenzyl)oxy)-N-(pyridin-3-yl)benzo[d]isoxazol-3-amine]
19 | 726 | 107 nM | 67000 nM | 59% |  | FC(F)(F)Oc1ccccc1COc1cccc2onc(Nc3cccnc3)c12 [Scheme I-19, 4-((2-Trifluoromethoxybenzyl)oxy)-N-(pyridin-3-yl)benzo[d]-isoxazol-3-amine]
20 |  | 1270 nM |  | 30% |  | FC(F)(F)Oc1cccc(COc2cccc3onc(Nc4cccnc4)c23)c1 [Scheme I-20, 4-((3-Trifluoromethoxybenzyl)oxy)-N-(pyridin-3-yl)benzo[d]-isoxazol-3-amine]
21 |  | > 10000 nM |  | 5% |  | FC(F)(F)Oc1ccc(COc2cccc3onc(Nc4cccnc4)c23)cc1 [Scheme I-21, 4-((4-Trifluoromethoxybenzyl)oxy)-N-(pyridin-3-yl)benzo[d]-isoxazol-3-amine]
22 |  | 4140 nM |  | 4% |  | N#Cc1ccccc1COc1cccc2onc(Nc3cccnc3)c12 [Scheme I-22, 4-((2-Cyanobenzyl)oxy)-N-(pyridin-3-yl)benzo[d]isoxazol-3-amine]
23 |  |  |  | -18% |  | N#Cc1ccc(COc2cccc3onc(Nc4cccnc4)c23)cc1 [Scheme I-24, 4-((4-Cyanobenzyl)oxy)-N-(pyridin-3-yl)benzo[d]isoxazol-3-amine]
24 |  |  |  | 29% |  | CN(c1cccnc1)c1noc2cccc(OCc3c(Cl)cccc3Cl)c12 [Scheme I-28, 4-((2,6-dichlorobenzyl)oxy)-N-methyl-N-(pyridin-3-yl)benzo[d]isoxazol-3-amine]
25 |  |  |  | -7% |  | c1ccc(COc2cccc3[nH]nc(Nc4cccnc4)c23)cc1 [Scheme I-29, 4-(benzyloxy)-N-(pyridin-3-yl)-1H-indazol-3-amine]
26 |  |  |  | 1% |  | Cn1nc(Nc2cccnc2)c2c(OCc3ccccc3)cccc21 [Scheme I-30, 4-(benzyloxy)-1-methyl-N-(pyridin-3-yl)-1H-indazol-3-amine]
27 |  |  |  | 18% |  | c1ccc(COc2cccc3ccnc(Nc4cccnc4)c23)cc1 [Scheme I-32, 8-(benzyloxy)-N-(pyridin-3-yl)isoquinolin-1-amine]
28 |  |  |  | 3% |  | CN(C)CC(=O)Nc1noc2cccc(OCc3cc(F)ccc3Cl)c12 [Scheme I-34, N-(4-((2-chloro-5-fluorobenzyl)oxy)benzo[d]isoxazol-3-yl)-2-(dimethylamino)acetamide]
29 |  |  |  | 9% |  | CC(C)(C)OC(=O)N1CCC(CCCOc2cccc3onc(Nc4cccnc4)c23)CC1 [Scheme I-40, Tert-Butyl 4-(3-((3-(pyridin-3-ylamino)benzo[d]isoxazol-4-yl)oxy)propyl)piperidine-1-carboxylate]
